Source: patent US12404332B2, “Methods for diagnosing and treating cancers” (Research Development Foundation, priority 2020, dated 2025)
Residues, ends and D or L forms follow the SMILES beside them. *: point of attachment. Cbz = O=C(OCc1ccccc1)*

What was measured:
[1] = test system: ID8agg murine ovarian cancer cells; assay: In vitro viability (MTT) of CTRL versus PD-L1^KO ID8agg cells; format: cell-based, mouse; conditions: monotherapy
Method: (§1) Cells (1×10^3) were plated in 96 well plastic culture plates in respective medium and treated for 5 days with DDRi or 3 days with gemcitabine at indicated concentrations. Drug concentrations were carefully optimized in preliminary work not shown. Cell viability was by MTT (3-(4,5-dimethylthiazol-2-yl)-2,5-diphenyl tetrazolium bromide) at 5 mg/ml. Absorbance was measured at 540 nm. Results are presented as a mean+/−SEM of ≥6 replicates. Total cells and viability were confirmed using a Vi-Cell-XR (Beckman Coulter).

[2] = test system: RT4 human bladder cancer cells; assay: In vitro viability (MTT) of CTRL versus PD-L1^KO RT4 cells; format: cell-based; conditions: monotherapy
Method: as §1

[3] = test system: 4T1 murine breast cancer cells; assay: In vitro viability (MTT) of CTRL versus PD-L1^lo 4T1 cells; format: cell-based, mouse
Method: as §1

RT4 cells = assay: Chk1 inhibitor synthetic lethality with beta-lactam antibiotics, RT4 cells; format: cell-based, human; conditions: for synthetic lethality with Chk1i: RT4 cells, Chk1i rabusertib
Method: Additional experiments were performed, as follows. MB49 were plated at 2,000 cells/well in 96 well flat bottom plates and treated with PD-L1 depleting drugs, olaparib (2.5 μM), and combination for 96 hours. RT4 were plated at 2,000 cells/well in 96 well flat bottom plates and treated with cefepime, rabusertib (1 μM), praxasertib, or combination for 96 hours. ID8agg, 4T1, and B16 cells were plated on fibronectin at 500 cells/well and treated with cefepime, rabusertib, or combination for 96 hours. Normalized treatment combination to DDR inhibitor alone, and PD-L1 depleting drug to vehicle alone (DMSO) were evaluated.

PD-L1 in OVCAR5 cells = assay: PD-L1 mRNA, protein and ubiquitination in OVCAR5 cells; format: cell-based, human; conditions: OVCAR5 cells
Method: FIGS. 39A-C: CAMB reduces PD-L1 through ubiquitination. FIG. 39A, RT-qPCR for PD-L1 mRNA in OVCAR5 and ID8agg cells treated with (+) or without (−) chlorambucil for 48 hours. (n=4). FIG. 39B, Western blot for PD-L1 protein in OVCAR5 cells with (+) or without (−) MG132 for 6 or 20 hours. (upper panel). PD-L1 expression in OVCAR5 cells treated with chlorambucil 48 hours and/or MG132 for 6 hours (lower panel). FIG. 39C, Ubiquitinated PD-L1 was immunoprecipitated (IP) and subjected to Western blot analysis with anti-ubiquitin (Ub) antibody. Cells were treated with chlorambucil for indicated times prior to ubiquitination analysis.
(§2) Western blotting and immunoprecipitation: To prepare whole cell lysates, cells were harvested and lysed in RIPA (radioimmunoprecipitation assay) buffer plus 1 mM phenylmethylsulphonyl fluoride and Halt protease/phosphatase inhibitor cocktail (Thermo Scientific) at 4° C. Protein concentrations were measured by BCA Protein Assay Kit (Thermo Scientific). Protein was run on precast 4-15% sodium dodecyl sulfate polyacrylamide gels (Bio-Rad), transferred to polyvinylidene fluoride membranes (GE Water and Process Technologies), and then blocked in 5% non-fat milk for 1 hour at room temperature. The membranes were then incubated with 1:1000 diluted primary antibodies against indicated proteins (Cell Signaling). Specific antibody binding was detected by chemiluminescence using Western Lightening Plus regent (Perkin Elmer). Cells for (co) immunoprecipitation experiments were seeded in 15-cm dishes and cultured as described, using 6 million cells per immunoprecipitation reaction. For protein ubiquitination, cells were lysed in denaturing buffer (50 mM Tris-HCl, 0.5 mM EDTA and 1% SDS) followed by heating at 95° C. for 10 minutes and then quenched with 9 volumes of quenching buffer (0.5% Triton X-100, 20 mM Tris-HCl (pH 8.0), 137 mM NaCl, 10% glycerol, 2 mM EDTA). Protease inhibitor cocktail (Roche) was added fresh to all buffers. Cell lysates were incubated on a rotator for 30 minutes at 4° C., and then centrifuged at 20,000 g for 15 minutes at 4° C. Supernatants were subsequently incubated with anti-PD-L1 antibody overnight and processed using Dynabeads Protein G for Immunoprecipitation (Thermo Fisher Scientific). The final eluate was processed and Western blotting was performed.
Quantitative Real-Time Reverse Transcriptase Polymerase Chain Reaction: Total RNA was isolated from homogenized whole lung tissue with Trizol reagent (Invitrogen) according to manufacturer instructions. […] Quantitative PCR (qPCR) was conducted using the Bio-Rad Real-Time PCR System (Applied Biosystems), amplified with transcript-specific primers with SYBR Green (Thermo Scientific), according to manufacturer instructions. […]

PD-L1 = assay: Tumor cell PD-L1 depletion by drugs (flow cytometry, immunoblot); format: cell-based, human and mouse; conditions: for expression of PD-L1 in cancer cells: summary statement
Method: High throughput Screening: B16 PD-L1 RFP cells were treated with 2.5 and 10 μM compounds from the Prestwick and LOPAC Libraries for 48 hours using the Agilent Bravo liquid pipetting platform. Then, cells were washed with PBS, and fixed with 4% paraformaldehyde (Electron Microscopy Sciences, Hatsfield, PA, Cat 15714S) and labeled with 2 μg/ml DAPI, (Molecular Probes, Cat D1306) and 1 μg/ml Cell Mask-Blue (Invitrogen, Cat. H32720). Plates were then imaged using the Operetta High Content Imaging System, Perkin Elmer, Waltham (DAPI and Cell Mask Blue, Ex 360-400, Em 410-480), and the RFP channels (Ex 520-550, Em 560-630) channels. Agents effecting ≥2-fold PD-L1 reduction in the RFP reporter without loss of ≥20% cell viability were candidate PD-L1 depletion agents.
Flow cytometry: Mice were sacrificed by cervical dislocation after induction of deep isoflurane anesthesia. ID8agg tumors were collected and cells were stained as described (Derup et al., 2020) using LSR II hardware and analyzed by FACS Diva (BD Bioscience) or Flow Jo software (Flow Jo, LLC). Anti-mouse (clone 10F.9G2) and human (clone 29E.2A3) PD-L1 [both PE/Cy7, Cat #124314 (mouse) 329718 (human)] were matched with isotype control. Apoptosis assessment used Annexin V and propidium iodide (Thermo Scientific) per manufacturer instruction.
as §2

mTORC1 = assay: Western blots for mTORC1 pathway and LC3 autophagy; format: cell-based
Method: FIGS. 40A-C: CAMB suppresses mTORC1 signals and reduces TIC numbers. FIG. 40A, Western blots for proteins in the mTORC1 pathway. Cells were treated with chlorambucil as indicated concentration for 48 hours. FIG. 40B, Western blot for LC3I/II to assess autophagy in cell lysates treated±chlorambucil at indicated concentrations. FIG. 40C, Percent of ALDH^hi TIC by flow cytometry of ES2 cells cultured±chlorambucil. Percent CD44^+CD24^+ ID8agg TIC and CD44^+CD133^+CD24^+ B16 TIC detected by flow cytometry.
as §2

[4] = test system: PD-L1, Chk2, gH2AX in RT4 cells; assay: Cefepime depletion of PD-L1 and Chk2, DNA damage (gH2AX); format: cell-based, human
Method: Experiments were performed to see if beta-lactam antibiotics may deplete PD-L1 in cancer cells. RT4 cells were incubated at 80 μM cefepime.
Next experiments were performed to see if beta-lacatam antibiotics can deplete Chk2 in vitro. RT4 cells were treated with 1 μM rabusertib (Chk1i), 75 μM cefepime (D7), or combination. Protein lysates were collected at 24, 48, 72, and 96 hours.

[5] = test system: UV induced TpN^61R derived CD274^+/+ or CD274^−/− melanoma cells; assay: Viability of de novo Nras CD274^+/+ versus CD274^−/− melanoma cells; format: cell-based, mouse; conditions: in vitro
From the text: FIGS. 26A-H: De novo PD-L1^KO tumors phenocopy important aspects of genetic PD-L1 depletion in established tumors. FIG. 26A, Melanoma-free survival of melanocyte specific CD274^fl,fl TpN^61R (KO) versus littermate (WT) autochthonous mice under conditions shown. FIG. 26B, Validation of PD-L1 expression by immunoblot (IB) of melanoma cells derived from UV induced (4.5 Kj/m^2) WT (CD274^+/+) or melanocyte specific CD274^KO (CD274^−/−) mice±in vitro interferon (IFN)-γ treatment. Viability curves of CD274^+/+ versus CD274^−/− cells treated with the selective Chk1 inhibitors FIG. 26C, prexasertib […] or FIG. 26D, rabusertib (LY2603618) in vitro at indicated concentrations. FIG. 26E, IB analysis of PD-L1, ATM, Chk2, and γH2AX of vehicle or rabusertib-treated CD274^+/+ and CD274^−/− cell lines. FIGS. 26F-H, Tumor growth curves in WT C57BL/6J mice (n=10 tumors/group) challenged with UV induced TpN^61R derived CD274^+/+ or CD274^−/− melanoma cells and treated with rabusertib (Chk1i, LY2603618) on the indicated treatment schedule. P values, two-way ANOVA.

[6] = test system: CTRL and PD-L1^KO RT4 cells; assay: Viability of RT4 cells treated with Chk1 inhibitor plus atezolizumab; format: cell-based, human; conditions: in vitro, absence of immune cells
Method: FIGS. 27A-H: Anti-PD-L1 antibodies mimic genetic PD-L1 depletion to impair tumor cell-intrinsic DDR signals and promote sensitivity to Chk1 inhibition in vitro and in vivo. Cell viability of FIG. 27A, CTRL and FIG. 27B, PD-L1^KORT4 cells treated with LY2603618 (Chk1 inhibitor) as shown plus IgG1 isotype or atezolizumab (atezo, 3 μg/ml) for 72 hours in vitro. Mean+SEM, n=6 replicates, ***, P<0.001, unpaired t-test. FIG. 27C, Immunoblot (IB) analysis of ATM, Chk2, γH2AX and vinculin (VINC) of RT4 cells treated in vitro with isotype, atezolizumab, Chk1i, or their combination. FIG. 27D, Viability of 4T1 cells as in panel A substituting anti-murine PD-L1 and isotype controls. FIG. 27E, IB of 4T1 as in panel FIG. 27C. FIG. 27F, Tumor curves of NSG mice (n=10 tumors/group) challenged with 4T1 tumor cells and treated with Chk1i±αPD-L1. FIG. 27G, Tumor curves and FIG. 27H, tumor weights in WT […] mice challenged and treated as in panel FIG. 27F. P values, two-way ANOVA.

CN(C)CCCOc1ccc(-c2ccc3ncc4c(c3c2)n(C2CCOCC2)c(=O)n4C)cn1 [AZD0156]
sensitivity of PD-L1^KO versus control ID8agg cells to the agent [1]: Minimal effects | sensitivity of PD-L1^KO versus control RT4 cells to the agent [2]: Minimal effects

C[C@@H]1COCCN1c1cc(C2([S@](C)(=N)=O)CC2)nc(-c2cc[nH]c3nccc2-3)n1 [AZD6738]
sensitivity of PD-L1^KO versus control ID8agg cells to the agent ([1]; listed as ATRi): enhanced sensitivity | sensitivity of PD-L1^lo versus control 4T1 cells to the agent [3]: enhanced sensitivity

CO/N=C(\C(=O)N[C@@H]1C(=O)N2C(C(=O)O)=C(CSc3nc(=O)c(=O)[nH]n3C)CS[C@H]12)c1csc(N)n1 [Ceftriaxone]
synthetic lethality with Chk1i (RT4 cells): not as effective

CC(C)C[C@@H](C=O)NC(=O)[C@H](CC(C)C)NC(=O)[C@H](CC(C)C)NC(=O)OCc1ccccc1 [MG132] (Cbz-Leu-Leu-Leu-aldehyde)
effect on CAMB-mediated PD-L1 reduction (PD-L1 in OVCAR5 cells): abolished CAMB-mediated PD-L1 reduction | PD-L1 expression (PD-L1 in OVCAR5 cells; by 6 hours after treatment): increased PD-L1 expression

Nc1nc2c(ncn2CCOCP(=O)(O)O)c(=O)[nH]1 [PMEG, 9-(2-phosphonylmethoxyethyl) guanine]
effect on cell viability (PD-L1; over 2-3 days, human and mouse tumor lines): little effect on cell viability | expression of PD-L1 in cancer cells (PD-L1): decreased expression of PD-L1 | autophagy (mTORC1): promote autophagy | mTORC1 signals (mTORC1): suppress mTORC1 signals

CC1(C)S[C@@H]2[C@H](NC(=O)Cc3ccccc3)C(=O)N2[C@H]1C(=O)O [Penicillin G]
synthetic lethality with Chk1i (RT4 cells): not induce synthetic lethality

Cc1nnc(SCC2=C(C(=O)O)N3C(=O)[C@@H](NC(=O)Cn4cnnn4)[C@H]3SC2)s1 [cefazolin]
synthetic lethality with Chk1i (RT4 cells): not as effective

CO/N=C(\C(=O)N[C@@H]1C(=O)N2C(C(=O)[O-])=C(C[N+]3(C)CCCC3)CS[C@H]12)c1csc(N)n1 [cefepime]
expression of PD-L1 in cancer cells (PD-L1): decreased expression of PD-L1 | effect on rabusertib efficacy (RT4 cells; FIG. 46B, cells not given): improves rabusertib efficacy | synthetic lethality with Chk1i (RT4 cells): elicited Chk1 inhibitor synthetic lethality in a PD-L1-dependent manner | Chk2 ([4]; FIGS. 44A-B, cells not given): depleted | DNA damage, as measured via gH2AX ([4]; FIGS. 44A-B, cells not given): increased DNA damage | PD-L1 ([4]; FIGS. 44A-B, cells not given): depleted | Chk2 in vitro ([4]; RT4 cells, 75 μM, 24-96 hours): deplete Chk2 | PD-L1 expression in vitro ([4]; RT4 cells, 80 μM): deplete PD-L1 expression

C[C@@H](O)[C@H]1C(=O)N2C(C(=O)O)=C(S[C@@H]3CN[C@H](C(=O)N(C)C)C3)[C@H](C)[C@H]12 [meropenem]
synthetic lethality with Chk1i (RT4 cells): not induce synthetic lethality

COc1cccc(OCCCN)c1-c1cc(Nc2cnc(C#N)cn2)n[nH]1 [prexasertib]
synthetic lethality in induced PD-L1^KO tumors [5]: exhibited synthetic lethality

atezolizumab
viability of RT4 cells, single agent [6]: slightly reduced viability
